The source of these data is patent US9707244B2, “Compositions and methods for treating conditions that affect epidermis” (Gencia Corporation, priority 2013, dated 2017).

For this data set, the system named is EpiDerm Full Thickness 400 (EFT-400) tissues. The experiment in a line: Mattek full-thickness skin model (EFT-400) skin thickness. The format is cell-based. The settings on record: 14 days; average over the three corticosteroids (100 nM dexamethasone, 50 nM betamethasone, 10 nM Clobetasol); p<0.001. As to the method: Following the protocol of Schoepe, we used the FTSM model to determine if co-treatment with Mitocreatine would reduce the loss in skin thickness produced by glucocorticoids.
2.5 mL of EpiDerm Full Thickness 400 (EFT-400) medium was dispensed into each well of the four 6-well plates aseptically in the tissue culture hood. The plates containing the EFT-400 tissues were removed from their plastic packaging and transferred using sterile forceps into the 6-well plates containing the 2.5 mL of EFT-400 media, making sure that no agarose adheres to the insert and that the media makes full contact with the underside of the tissue insert membrane (no air bubbles under the insert). The apical surface of the tissue should remain exposed to air (no media should be added to the side of the insert).
The tissues were equilibrated overnight at 37° C., 5% CO2. Treatment conditions are listed below in Table 5.
Day 2-13: The plates were visually examined and the media containing the test compounds was replenished each day.
Day 15: The inserts were dislodged from the support and the tissue carefully removed from the support with a scalpel.
The tissues were placed in 50 mL conical tubes containing 10% phosphate buffered formalin and sent for sectioning, histological processing and H&E staining Slides were visualized using a Leica Stereoscope equipped with a digital camera. Images were acquired and measured using ExoLabs software. Data was tabulated in Excel and the results were analyzed.
As for `C[C@@H]1C[C@H]2[C@@H]3CCC4=CC(=O)C=C[C@]4(C)[C@@]3(F)[C@@H](O)C[C@]2(C)[C@@]1(O)C(=O)CO` [dexamethasone], the “reduction in skin thickness (FTSM)” value turned out to be 26%.

Regarding `C[C@H]1C[C@H]2[C@@H]3CCC4=CC(=O)C=C[C@]4(C)[C@@]3(F)[C@@H](O)C[C@]2(C)[C@@]1(O)C(=O)CCl` [Clobetasol], the “reduction in skin thickness (FTSM)” value was determined as 26%. As to `C[C@H]1C[C@H]2[C@@H]3CCC4=CC(=O)C=C[C@]4(C)[C@@]3(F)[C@@H](O)C[C@]2(C)[C@@]1(O)C(=O)CO` [betamethasone], the “reduction in skin thickness (FTSM)” value stood at 26%.
